# Target: p38 (Homo sapiens, UniProt Q16539)
# Experiment: Protein Kinase Assay (33P incorporation from γ-[33P]ATP into GST-ATF-2)
# Format: biochemical
# Details: 2 nM p38, preincubated 20 min at 30° C.; 10 uM cold ATP, 2 uM GST-ATF2, 70 min; read-out: ACT. (Activity), IC50 category in Protein Kinase Assay
# Experimental: Protein Kinase Assay. The protein kinase activity of p38 was determined by measuring the incorporation of ^33P from γ-[^33P]ATP into the GST-ATF-2 substrate, amino acids 19-96 (Upstate, N.Y. USA). The reactions were carried out in a final volume of 50 μL of 24 mM Tris-HCl buffer, pH 7.5, containing 13 mM MgCl2, 12% Glycerol, 2% DMSO, 2 mM DTT, […] of γ-[^33P]ATP (1000 Ci/mmol; 1 Ci=37 GBq) (GE Healthcare, Piscataway, N.J.), 10 uM cold ATP (GE Healthcare, Piscataway, N.J.), and 2 uM GST-ATF2. Compounds were preincubated with 2 nM p38 for 20 min at 30° C.; the reactions were initiated by the addition of GST-ATF2 and ATP and incubated for 70 min at 30° C. before being stopped by the addition of 10 μL of 600 mM phosphoric acid. The phosphorylated substrate was captured on phosphocellulose 96-well plate (Millipore MAPHNOB 10), washed with 100 mM phosphoric acid, and counted in a BeckmenCoulter LS6500 liquid scintillation counter. […] (Activity).
# Sequence of p38 (Q16539 whole entry): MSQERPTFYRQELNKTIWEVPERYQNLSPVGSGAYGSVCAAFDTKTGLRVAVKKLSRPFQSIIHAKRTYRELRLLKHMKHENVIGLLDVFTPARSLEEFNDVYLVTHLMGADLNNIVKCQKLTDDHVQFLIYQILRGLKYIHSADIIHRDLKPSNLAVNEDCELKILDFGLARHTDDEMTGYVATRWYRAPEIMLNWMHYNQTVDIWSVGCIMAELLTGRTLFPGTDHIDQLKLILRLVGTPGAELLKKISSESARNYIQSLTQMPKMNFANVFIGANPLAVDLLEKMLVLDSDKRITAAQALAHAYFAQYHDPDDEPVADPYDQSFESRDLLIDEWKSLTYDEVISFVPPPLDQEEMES
row,SMILES,IC50
1,"Cc1ccc(NC(=O)Nc2sc(C(C)(C)C)cc2C(=O)N2CCNC(=O)C2(C)C)cc1-c1cccc[n+]1[O-] [2-(5-(3-(5-tert-butyl-3-(2,2-dimethyl-3-oxopiperazine-1-carbonyl)thiophen-2-yl)ureido)-2-methylphenyl)pyridine 1-oxide]",< 100 nM
2,"CCNC(=O)c1ccc(-c2cc(NC(=O)Nc3cc(C(C)(C)C)sc3C(=O)N3CCN(C)C(=O)C3(C)C)ccc2C)cn1 [5-(5-(3-(5-tert-butyl-2-(2,2,4-trimethyl-3-oxopiperazine-1-carbonyl)thiophen-3-yl)ureido)-2-methylphenyl)-N-ethylpyridine-2-carboxamide]",< 100 nM
3,"Cc1ccc(NC(=O)Nc2sc(C(C)(C)C)cc2C(=O)N2CCNC(=O)C2(C)C)cc1-c1cc[n+]([O-])cc1 [4-(5-(3-(5-tert-butyl-3-(2,2-dimethyl-3-oxopiperazine-1-carbonyl)thiophen-2-yl)ureido)-2-methylphenyl)pyridine 1-oxide]",< 100 nM
4,"CCNC(=O)c1ccc(-c2cc(NC(=O)Nc3sc(C(C)(C)C)cc3C(=O)N3CCNC(=O)C3(C)C)ccc2C)cn1 [5-(5-(3-(5-tert-butyl-3-(2,2-dimethyl-3-oxopiperazine-1-carbonyl)thiophen-2-yl)ureido)-2-methylphenyl)-N-ethylpyridine-2-carboxamide]",< 100 nM
5,"COC(=O)CN1CCN(C(=O)c2cc(C(C)(C)C)sc2NC(=O)Nc2ccc(C)c(-c3ccncc3)c2)C(C)(C)C1=O [methyl 2-(4-(2-tert-butyl-5-(3-(4-methyl-3-(pyridin-4-yl)phenyl)ureido)thiophene-4-carbonyl)-3,3-dimethyl-2-oxopiperazin-1-yl)acetate]",< 100 nM
6,"Cc1ccc(-c2cc(NC(=O)Nc3sc(C(C)(C)C)cc3C(=O)N3CCNC(=O)C3(C)C)ccc2C)nn1 [1-(5-tert-butyl-3-(2,2-dimethyl-3-oxopiperazine-1-carbonyl)thiophen-2-yl)-3-(4-methyl-3-(6-methylpyridazin-3-yl)phenyl)urea]",< 100 nM
7,"Cc1ccc(NC(=O)Nc2sc(C(C)(C)C)cc2C(=O)N2CCNC(=O)C2(C)C)cc1-c1cnc(N2CCOCC2)nc1 [1-(5-tert-butyl-3-(2,2-dimethyl-3-oxopiperazine-1-carbonyl)thiophen-2-yl)-3-(4-methyl-3-(2-morpholinopyrimidin-5-yl)phenyl)urea]",< 100 nM
8,"Cc1ccc(NC(=O)Nc2cc(C(C)(C)C)sc2C(=O)N2CCNC(=O)C2(C)C)cc1-c1ccc(N2CCOCC2)cn1 [1-(5-tert-butyl-2-(2,2-dimethyl-3-oxopiperazine-1-carbonyl)thiophen-3-yl)-3-(4-methyl-3-(5-morpholinopyridin-2-yl)phenyl)urea]",< 100 nM
9,"Cc1ccc(NC(=O)Nc2sc(C(C)(C)C)cc2C(=O)N2CCN(C)C(=O)C2(C)C)cc1-c1ccc(N2CCN(C)CC2)nc1 [1-(5-tert-butyl-3-(2,2,4-trimethyl-3-oxopiperazine-1-carbonyl)thiophen-2-yl)-3-(4-methyl-3-(6-(4-methylpiperazin-1-yl)pyridin-3-yl)phenyl)urea]",< 100 nM
10,"Cc1ccc(NC(=O)Nc2cc(C(C)(C)C)sc2C(=O)N2CCNC(=O)C2(C)C)cc1-c1ccc(CN2CCOCC2)nc1 [1-(5-tert-butyl-2-(2,2-dimethyl-3-oxopiperazine-1-carbonyl)thiophen-2-yl)-3-(4-methyl-3-(6-(morpholinomethyl)pyridin-3-yl)phenyl)urea]",< 100 nM
11,"Cc1ccc(NC(=O)Nc2sc(C(C)(C)C)cc2C(=O)N2CCN(C)C(=O)C2(C)C)cc1-c1ccc(-n2ccnc2)nc1 [1-(3-(6-(1H-imidazol-1-yl)pyridin-3-yl)-4-methylphenyl)-3-(5-tert-butyl-3-(2,2,4-trimethyl-3-oxopiperazine-1-carbonyl)thiophen-2-yl)urea]",< 100 nM
12,"Cc1ccc(NC(=O)Nc2cn(C(C)(C)C)nc2C(=O)N2CCN(C)C(=O)C2(C)C)cc1-c1ccc(N2CCOCC2)cn1 [1-(1-tert-butyl-3-(2,2,4-trimethyl-3-oxopiperazine-1-carbonyl)-1H-pyrazol-4-yl)-3-(4-methyl-3-(5-morpholinopyridin-2-yl)phenyl)urea]",< 100 nM
13,"Cc1ccc(NC(=O)Nc2sc(C(C)(C)C)cc2C(=O)N2CCNC(=O)CC2)cc1-c1cccnc1 [1-(5-tert-butyl-3-(5-oxo-1,4-diazepane-1-carbonyl)thiophen-2-yl)-3-(4-methyl-3-(pyridin-3-yl)phenyl)urea]",< 100 nM
14,"Cc1ccc(NC(=O)Nc2sc(C(C)(C)C)cc2C(=O)N2CCNC(=O)C2(C)C)cc1-c1ccccn1 [1-(5-tert-butyl-3-(2,2-dimethyl-3-oxopiperazine-1-carbonyl)thiophen-2-yl)-3-(4-methyl-3-(pyridin-2-yl)phenyl)urea]",< 100 nM
15,"Cc1ccc(NC(=O)Nc2sc(C(C)(C)C)cc2C(=O)N2CCN(C)C(=O)C2(C)C)cc1N1C(=O)CN(C)C1=O [1-(5-tert-butyl-3-(2,2,4-trimethyl-3-oxopiperazine-1-carbonyl)thiophen-2-yl)-3-(4-methyl-3-(3-methyl-2,5-dioxoimidazolidin-1-yl)phenyl)urea]",< 100 nM
16,"COCCNC(=O)c1ccc(-c2cc(NC(=O)Nc3sc(C(C)(C)C)cc3C(=O)N3CCN(C)C(=O)C3(C)C)ccc2C)cn1 [5-(5-(3-(5-tert-butyl-3-(2,2,4-trimethyl-3-oxopiperazine-1-carbonyl)thiophen-2-yl)ureido)-2-methylphenyl)-N-(2-methoxyethyl)pyridine-2-carboxamide]",< 100 nM
17,"Cc1ncc(NC(=O)Nc2sc(C(C)(C)C)cc2C(=O)N2CCNC(=O)C2(C)C)cc1-c1ccc(N2CCOCC2)nc1 [1-(5-tert-butyl-3-(2,2-dimethyl-3-oxopiperazine-1-carbonyl)thiophen-2-yl)-3-(2-methyl-6′-morpholino-3,3′-bipyridin-5-yl)urea]",< 100 nM
18,"CCc1ccc(-c2cc(NC(=O)Nc3cc(C(C)(C)C)sc3C(=O)N3CCN(C)C(=O)C3(C)C)cc(F)c2C)cn1 [1-(5-tert-butyl-2-(2,2,4-trimethyl-3-oxopiperazine-1-carbonyl)thiophen-3-yl)-3-(3-(6-ethylpyridin-3-yl)-5-fluoro-4-methylphenyl)urea]",< 100 nM
19,"Cc1ccc(NC(=O)Nc2sc(C(C)(C)C)cc2C(=O)N2CCNC(=O)C2(C)C)cc1-c1cccnc1 [1-(5-tert-butyl-3-(2,2-dimethyl-3-oxopiperazine-1-carbonyl)thiophen-2-yl)-3-(4-methyl-3-(pyridin-3-yl)phenyl)urea]",< 100 nM
20,"Cc1ccc(NC(=O)Nc2cc(C(C)(C)C)sc2C(=O)N2CCN(C)C(=O)C2(C)C)cc1-c1ccc(CN2CCOCC2)nc1 [1-(5-tert-butyl-2-(2,2,4-trimethyl-3-oxopiperazine-1-carbonyl)thiophen-3-yl)-3-(4-methyl-3-(6-(morpholinomethyl)pyridin-3-yl)phenyl)urea]",< 100 nM
21,"CN1CCN(c2cccc(NC(=O)Nc3sc(C(C)(C)C)cc3C(=O)N3CCNC(=O)C3(C)C)c2)CC1 [1-(5-tert-butyl-3-(2,2-dimethyl-3-oxopiperazine-1-carbonyl)thiophen-2-yl)-3-(3-(4-methylpiperazin-1-yl)phenyl)urea]",< 10000 nM
22,"Cc1ccc(NC(=O)Nc2sc(C(C)(C)C)cc2C(=O)N2CCNC(=O)C2(C)C)cc1-c1ccc(N2CCCCC2)nc1 [1-(5-tert-butyl-3-(2,2-dimethyl-3-oxopiperazine-1-carbonyl)thiophen-2-yl)-3-(4-methyl-3-(6-(piperidin-1-yl)pyridin-3-yl)phenyl)urea]",< 100 nM
23,"CCc1ccc(-c2cc(NC(=O)Nc3sc(C(C)(C)C)cc3C(=O)N3CCN(C)C(=O)C3(C)C)ccc2C)nc1 [1-(5-tert-butyl-3-(2,2,4-trimethyl-3-oxopiperazine-1-carbonyl)thiophen-2-yl)-3-(3-(5-ethylpyridin-2-yl)-4-methylphenyl)urea]",< 100 nM
24,"CCNC(=O)c1ccc(-c2cc(NC(=O)Nc3cn(C(C)(C)C)nc3C(=O)N3CCNC(=O)C3(C)C)ccc2C)cn1 [5-(5-(3-(1-tert-butyl-3-(2,2-dimethyl-3-oxopiperazine-1-carbonyl)-1H-pyrazol-4-yl)ureido)-2-methylphenyl)-N-ethylpyridine-2-carboxamide]",< 100 nM
25,"Cc1ccc(NC(=O)Nc2sc(C(C)(C)C)cc2C(=O)N2CCNC(=O)C2(C)C)cc1-c1ccc(OCCCN2CCN(C)CC2)nc1 [1-(5-tert-butyl-3-(2,2-dimethyl-3-oxopiperazine-1-carbonyl)thiophen-2-yl)-3-(4-methyl-3-(6-(3-(4-methylpiperazin-1-yl)propoxy)pyridin-3-yl)phenyl)urea]",< 100 nM
26,"Cc1ccc(NC(=O)Nc2cn(C(C)(C)C)nc2C(=O)N2CCNC(=O)C2(C)C)cc1-c1ccc(N2CCOCC2)nc1 [1-(1-tert-butyl-3-(2,2-dimethyl-3-oxopiperazine-1-carbonyl)-1H-pyrazol-4-yl)-3-(4-methyl-3-(6-morpholinopyridin-3-yl)phenyl)urea]",< 100 nM
27,"Cc1ccc(NC(=O)Nc2cc(C(C)(C)C)sc2C(=O)N2CCNC(=O)C2(C)C)cc1-c1ccc(N2CCOCC2)nc1 [1-(5-tert-butyl-2-(2,2-dimethyl-3-oxopiperazine-1-carbonyl)thiophen-3-yl)-3-(4-methyl-3-(6-morpholinopyridin-3-yl)phenyl)urea]",< 100 nM
28,Cc1ccc(NC(=O)Nc2sc(C(C)(C)C)cc2C(=O)N2CCNS(=O)(=O)CC2)cc1-c1ccc(CN2CCOCC2)nc1,< 100 nM
